From ChEMBL document CHEMBL1201862, “PubChem BioAssay data set” (2004)
Activity calls are given as the source filed them.

Experiments:
[1] = target: Voltage-dependent T-type calcium channel subunit alpha-1H (Homo sapiens, UniProt O95180); type: functional;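 also: channel activity triggered by adding a high calcium stimulation buffer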
[2] = target: T1, Calpain-2 catalytic subunit (Sus scrofa, UniProt P43367); assay: pig calpain II inhibitor potency, dose response, biochemical, fluorogenic peptide substrate (AID 1420); type: functional
T1 sequence (P43367 whole entry): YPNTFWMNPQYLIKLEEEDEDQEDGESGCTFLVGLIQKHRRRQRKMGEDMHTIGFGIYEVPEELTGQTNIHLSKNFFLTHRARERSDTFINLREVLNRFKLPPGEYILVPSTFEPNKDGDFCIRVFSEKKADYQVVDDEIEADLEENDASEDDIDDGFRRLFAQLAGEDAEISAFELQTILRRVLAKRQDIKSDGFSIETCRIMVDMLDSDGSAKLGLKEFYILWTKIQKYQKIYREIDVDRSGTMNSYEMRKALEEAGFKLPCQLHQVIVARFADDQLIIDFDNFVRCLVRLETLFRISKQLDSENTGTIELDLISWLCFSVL

[3] = cytotoxicity in HEK-293T cells, dose response, cytotoxicity control for BCR NF-kB inhibitor project, luminescence, B-cell screen hits (AID 489021); type: functional, cell-based;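 also: HEK-293T cells carrying an NF-kB luciferase reporter; cells exposed to compound for about 14 hours before viability readout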
Cytochrome P450 3A4 [4] = target: T2, Cytochrome P450 3A4 (Homo sapiens, UniProt P08684); details: Potency
[5] = target: T3, Sentrin-specific protease 7 (Homo sapiens, UniProt Q9BQF6); type: functional;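 also: Luminescence-based dose-response confirmation of ultra-high-throughput screening hits, measuring inhibition of SENP7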
T3 sequence (Q9BQF6 whole entry): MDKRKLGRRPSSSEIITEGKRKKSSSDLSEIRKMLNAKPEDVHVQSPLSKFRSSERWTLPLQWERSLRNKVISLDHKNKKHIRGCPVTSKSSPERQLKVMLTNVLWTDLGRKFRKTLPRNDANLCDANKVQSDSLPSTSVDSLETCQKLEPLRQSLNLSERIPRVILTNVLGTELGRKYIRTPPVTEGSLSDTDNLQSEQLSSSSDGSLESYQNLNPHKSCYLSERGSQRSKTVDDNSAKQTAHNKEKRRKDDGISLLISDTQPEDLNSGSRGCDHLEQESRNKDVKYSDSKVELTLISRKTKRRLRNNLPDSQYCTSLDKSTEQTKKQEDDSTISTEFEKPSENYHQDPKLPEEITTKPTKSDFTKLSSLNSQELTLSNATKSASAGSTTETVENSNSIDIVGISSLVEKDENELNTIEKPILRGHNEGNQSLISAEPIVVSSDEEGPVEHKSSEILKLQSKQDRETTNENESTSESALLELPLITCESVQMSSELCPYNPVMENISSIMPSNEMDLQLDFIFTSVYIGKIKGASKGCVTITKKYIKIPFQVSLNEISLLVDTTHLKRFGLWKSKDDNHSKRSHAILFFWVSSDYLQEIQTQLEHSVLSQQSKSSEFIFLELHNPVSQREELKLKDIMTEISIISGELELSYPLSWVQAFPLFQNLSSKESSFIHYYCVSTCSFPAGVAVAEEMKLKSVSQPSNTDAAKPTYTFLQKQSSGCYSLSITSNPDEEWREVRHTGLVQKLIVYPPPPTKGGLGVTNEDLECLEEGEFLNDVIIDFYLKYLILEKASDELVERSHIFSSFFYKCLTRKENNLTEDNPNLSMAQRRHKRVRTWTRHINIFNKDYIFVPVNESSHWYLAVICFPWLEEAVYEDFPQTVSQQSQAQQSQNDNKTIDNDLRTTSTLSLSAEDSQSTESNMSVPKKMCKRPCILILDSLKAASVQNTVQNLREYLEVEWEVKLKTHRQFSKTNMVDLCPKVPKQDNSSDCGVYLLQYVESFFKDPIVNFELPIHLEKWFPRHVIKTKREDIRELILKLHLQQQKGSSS

[6] = target: T4, Sentrin-specific protease 8 (Homo sapiens, UniProt Q96LD8); type: functional;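 also: luminescence read-out of SENP8 inhibition, dose-response confirmation following an ultra-high-throughput screen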
T4 sequence (Q96LD8 whole entry): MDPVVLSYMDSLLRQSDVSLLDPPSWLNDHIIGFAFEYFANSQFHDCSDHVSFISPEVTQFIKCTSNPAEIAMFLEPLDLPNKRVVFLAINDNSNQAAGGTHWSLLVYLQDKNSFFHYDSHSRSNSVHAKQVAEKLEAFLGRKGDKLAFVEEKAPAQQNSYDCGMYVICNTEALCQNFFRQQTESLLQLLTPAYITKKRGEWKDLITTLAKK

[7] = target: T5, Sentrin-specific protease 6 (Homo sapiens, UniProt Q9GZR1); type: functional;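 also: Luminescence-based dose-response confirmatory assay of SENP6 inhibition, following up an ultra-high-throughput screen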
T5 sequence (Q9GZR1 whole entry): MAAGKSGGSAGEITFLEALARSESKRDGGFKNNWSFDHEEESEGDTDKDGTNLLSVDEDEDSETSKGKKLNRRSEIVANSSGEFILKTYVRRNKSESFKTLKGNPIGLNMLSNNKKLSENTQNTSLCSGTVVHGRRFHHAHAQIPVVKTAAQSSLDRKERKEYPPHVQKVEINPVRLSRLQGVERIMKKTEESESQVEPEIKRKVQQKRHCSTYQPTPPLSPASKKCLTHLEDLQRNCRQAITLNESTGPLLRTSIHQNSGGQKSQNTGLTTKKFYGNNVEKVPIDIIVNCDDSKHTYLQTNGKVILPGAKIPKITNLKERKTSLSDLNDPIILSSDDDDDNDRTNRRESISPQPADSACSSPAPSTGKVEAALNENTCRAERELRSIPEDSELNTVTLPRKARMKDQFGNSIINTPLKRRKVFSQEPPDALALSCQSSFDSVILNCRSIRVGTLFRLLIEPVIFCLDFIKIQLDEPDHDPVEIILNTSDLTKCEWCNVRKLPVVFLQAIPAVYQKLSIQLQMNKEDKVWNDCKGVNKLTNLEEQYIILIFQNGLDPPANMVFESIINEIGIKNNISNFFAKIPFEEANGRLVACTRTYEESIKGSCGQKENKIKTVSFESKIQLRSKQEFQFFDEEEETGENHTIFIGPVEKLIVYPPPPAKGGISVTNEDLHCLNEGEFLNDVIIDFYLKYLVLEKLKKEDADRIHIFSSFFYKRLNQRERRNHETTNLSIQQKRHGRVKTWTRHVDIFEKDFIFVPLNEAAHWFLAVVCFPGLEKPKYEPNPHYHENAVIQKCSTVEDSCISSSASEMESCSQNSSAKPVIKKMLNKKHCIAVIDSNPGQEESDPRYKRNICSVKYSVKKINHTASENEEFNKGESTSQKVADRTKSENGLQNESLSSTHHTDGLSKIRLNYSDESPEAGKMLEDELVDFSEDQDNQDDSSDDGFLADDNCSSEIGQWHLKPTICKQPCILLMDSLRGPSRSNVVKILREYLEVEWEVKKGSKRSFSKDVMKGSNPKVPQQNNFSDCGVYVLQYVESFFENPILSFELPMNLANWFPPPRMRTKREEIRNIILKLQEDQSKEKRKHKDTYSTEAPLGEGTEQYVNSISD

Leucine aminopeptidase = target: T6, Leucine aminopeptidase (Plasmodium falciparum 3D7, UniProt Q8IL11); assay: P. falciparum M17LAP inhibitors, primary screen, biochemical, fluorogenic H-Leu-NHMec substrate, 1536-well (AID 1619); type: functional
T6 sequence (Q8IL11 whole entry): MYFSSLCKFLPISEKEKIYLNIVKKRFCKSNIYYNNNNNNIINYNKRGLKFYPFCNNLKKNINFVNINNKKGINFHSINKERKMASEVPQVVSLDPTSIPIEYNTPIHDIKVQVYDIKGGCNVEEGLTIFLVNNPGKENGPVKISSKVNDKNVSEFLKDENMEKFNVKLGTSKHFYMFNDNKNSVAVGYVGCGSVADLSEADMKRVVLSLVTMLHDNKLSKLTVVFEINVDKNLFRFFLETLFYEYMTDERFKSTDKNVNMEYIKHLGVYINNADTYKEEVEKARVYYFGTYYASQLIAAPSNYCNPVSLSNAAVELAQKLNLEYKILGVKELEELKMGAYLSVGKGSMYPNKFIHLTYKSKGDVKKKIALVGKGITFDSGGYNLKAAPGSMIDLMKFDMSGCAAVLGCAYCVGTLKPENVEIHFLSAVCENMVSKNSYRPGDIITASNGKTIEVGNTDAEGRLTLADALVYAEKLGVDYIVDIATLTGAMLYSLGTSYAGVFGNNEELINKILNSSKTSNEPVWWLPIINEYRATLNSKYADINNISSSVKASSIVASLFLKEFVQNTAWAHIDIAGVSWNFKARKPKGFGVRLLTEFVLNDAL

Aminopeptidase N = target: T7, Aminopeptidase N (Plasmodium falciparum FcB1/Columbia, UniProt O96935); assay: P. falciparum M1AAP inhibitors, biochemical, fluorogenic H-Leu-NHMec substrate, 1536-well (AID 1445); parameters: species or system Plasmodium falciparum 3D7, 3D7
T7 sequence (O96935 whole entry): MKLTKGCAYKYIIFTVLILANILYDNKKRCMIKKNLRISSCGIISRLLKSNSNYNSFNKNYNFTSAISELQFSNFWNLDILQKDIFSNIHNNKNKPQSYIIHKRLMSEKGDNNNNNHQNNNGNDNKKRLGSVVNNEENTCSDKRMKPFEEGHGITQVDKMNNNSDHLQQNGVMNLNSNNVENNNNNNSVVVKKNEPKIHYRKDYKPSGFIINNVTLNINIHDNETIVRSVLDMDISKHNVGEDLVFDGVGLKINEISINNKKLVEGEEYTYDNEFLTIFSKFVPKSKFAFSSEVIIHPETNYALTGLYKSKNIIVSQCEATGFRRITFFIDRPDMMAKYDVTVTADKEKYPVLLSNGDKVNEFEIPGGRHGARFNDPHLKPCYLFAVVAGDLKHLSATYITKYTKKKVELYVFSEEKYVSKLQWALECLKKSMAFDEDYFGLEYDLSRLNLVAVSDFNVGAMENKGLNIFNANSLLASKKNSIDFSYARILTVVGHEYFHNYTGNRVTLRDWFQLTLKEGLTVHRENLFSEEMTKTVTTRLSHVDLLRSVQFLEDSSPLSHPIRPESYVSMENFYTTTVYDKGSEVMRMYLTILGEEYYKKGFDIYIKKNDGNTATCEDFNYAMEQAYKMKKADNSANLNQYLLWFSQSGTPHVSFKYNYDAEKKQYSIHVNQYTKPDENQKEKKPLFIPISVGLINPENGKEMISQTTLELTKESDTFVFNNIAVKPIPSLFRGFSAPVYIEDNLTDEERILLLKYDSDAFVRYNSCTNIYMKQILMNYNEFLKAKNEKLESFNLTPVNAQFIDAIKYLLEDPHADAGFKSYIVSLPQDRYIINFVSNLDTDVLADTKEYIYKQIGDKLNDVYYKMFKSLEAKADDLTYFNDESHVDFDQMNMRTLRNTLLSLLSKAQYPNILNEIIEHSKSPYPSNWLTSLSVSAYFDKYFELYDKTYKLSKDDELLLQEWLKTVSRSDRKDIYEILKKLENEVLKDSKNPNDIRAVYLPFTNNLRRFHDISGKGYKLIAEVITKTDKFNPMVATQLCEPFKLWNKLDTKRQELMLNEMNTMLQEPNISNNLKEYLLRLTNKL

INS1 = assay: beta cell apoptosis inhibitors, cytokine rescue, dose response, luminescence, retest (AID 449756); type: functional, cell-based; details: Rattus norvegicus;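 also: cell death triggered by IL-1 beta plus TNF-alpha plus IFN-gamma mixture; protective hits raise ATP signal compared with cytokine alone wells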
cells [8] = type: functional, cell-based
cells [9] = type: functional, cell-based; remark: listed apart in the source
Cytochrome P450 3A4 [10] = target: T2, Cytochrome P450 3A4

Voltage-dependent T-type calcium channel subunit alpha-1H, sequence (O95180 whole entry): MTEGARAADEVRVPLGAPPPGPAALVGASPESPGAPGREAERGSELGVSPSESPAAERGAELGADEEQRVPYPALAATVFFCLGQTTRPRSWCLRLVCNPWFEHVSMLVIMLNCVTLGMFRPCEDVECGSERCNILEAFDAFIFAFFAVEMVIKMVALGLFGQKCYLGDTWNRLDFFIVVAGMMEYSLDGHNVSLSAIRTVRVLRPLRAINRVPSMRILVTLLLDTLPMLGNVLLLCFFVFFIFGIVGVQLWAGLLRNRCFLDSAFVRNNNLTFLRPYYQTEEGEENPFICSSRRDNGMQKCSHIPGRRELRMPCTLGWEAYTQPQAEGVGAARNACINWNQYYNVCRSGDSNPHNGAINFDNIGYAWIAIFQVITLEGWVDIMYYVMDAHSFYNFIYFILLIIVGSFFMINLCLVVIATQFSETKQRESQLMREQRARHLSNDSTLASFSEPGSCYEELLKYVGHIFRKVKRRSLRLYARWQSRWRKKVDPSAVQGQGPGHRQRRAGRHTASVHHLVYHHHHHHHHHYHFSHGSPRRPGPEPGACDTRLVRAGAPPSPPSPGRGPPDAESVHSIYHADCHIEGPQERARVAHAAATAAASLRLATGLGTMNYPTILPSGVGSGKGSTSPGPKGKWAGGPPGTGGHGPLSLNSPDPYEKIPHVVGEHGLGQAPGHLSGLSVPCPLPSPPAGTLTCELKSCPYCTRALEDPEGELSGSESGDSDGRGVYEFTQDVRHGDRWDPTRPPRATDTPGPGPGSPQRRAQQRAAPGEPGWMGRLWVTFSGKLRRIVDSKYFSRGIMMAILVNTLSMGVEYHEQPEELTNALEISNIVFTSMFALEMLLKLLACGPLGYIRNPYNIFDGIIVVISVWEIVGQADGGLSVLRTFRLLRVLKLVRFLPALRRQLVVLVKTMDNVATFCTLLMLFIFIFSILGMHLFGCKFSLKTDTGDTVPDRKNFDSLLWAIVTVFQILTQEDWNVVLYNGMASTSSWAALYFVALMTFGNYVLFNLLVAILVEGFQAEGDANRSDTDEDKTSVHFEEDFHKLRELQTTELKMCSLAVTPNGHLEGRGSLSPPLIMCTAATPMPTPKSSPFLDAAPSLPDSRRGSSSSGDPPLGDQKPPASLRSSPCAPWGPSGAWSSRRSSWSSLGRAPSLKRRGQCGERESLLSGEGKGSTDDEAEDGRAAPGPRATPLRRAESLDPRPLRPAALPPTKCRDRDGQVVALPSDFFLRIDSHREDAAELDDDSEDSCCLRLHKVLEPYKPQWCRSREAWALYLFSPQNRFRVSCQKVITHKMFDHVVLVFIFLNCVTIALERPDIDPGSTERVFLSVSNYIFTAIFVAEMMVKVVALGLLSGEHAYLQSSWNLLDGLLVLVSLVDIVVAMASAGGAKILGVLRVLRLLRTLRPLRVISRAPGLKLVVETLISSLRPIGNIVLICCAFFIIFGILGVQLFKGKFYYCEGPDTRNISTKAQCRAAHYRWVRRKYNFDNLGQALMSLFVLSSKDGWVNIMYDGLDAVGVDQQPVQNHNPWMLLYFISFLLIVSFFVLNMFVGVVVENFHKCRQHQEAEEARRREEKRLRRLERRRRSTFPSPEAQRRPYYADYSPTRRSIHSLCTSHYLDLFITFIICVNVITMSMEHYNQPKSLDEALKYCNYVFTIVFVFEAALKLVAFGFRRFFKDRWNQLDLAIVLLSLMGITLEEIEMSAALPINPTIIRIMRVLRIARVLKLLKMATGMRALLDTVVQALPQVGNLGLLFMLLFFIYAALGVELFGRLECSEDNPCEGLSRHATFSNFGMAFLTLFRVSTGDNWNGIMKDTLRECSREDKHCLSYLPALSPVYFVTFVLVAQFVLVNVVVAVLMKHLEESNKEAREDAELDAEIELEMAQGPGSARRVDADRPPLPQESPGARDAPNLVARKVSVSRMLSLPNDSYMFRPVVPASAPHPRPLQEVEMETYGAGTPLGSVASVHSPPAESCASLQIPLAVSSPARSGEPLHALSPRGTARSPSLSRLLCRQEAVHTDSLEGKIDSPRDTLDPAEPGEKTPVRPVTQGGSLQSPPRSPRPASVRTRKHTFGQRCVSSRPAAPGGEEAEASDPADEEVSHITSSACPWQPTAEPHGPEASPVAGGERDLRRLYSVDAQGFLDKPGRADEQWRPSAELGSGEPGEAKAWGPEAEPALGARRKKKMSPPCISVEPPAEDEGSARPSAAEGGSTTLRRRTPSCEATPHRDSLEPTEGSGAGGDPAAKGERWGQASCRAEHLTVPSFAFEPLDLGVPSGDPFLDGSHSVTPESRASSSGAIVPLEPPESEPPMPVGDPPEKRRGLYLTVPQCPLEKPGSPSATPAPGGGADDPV
T2 sequence (P08684 whole entry): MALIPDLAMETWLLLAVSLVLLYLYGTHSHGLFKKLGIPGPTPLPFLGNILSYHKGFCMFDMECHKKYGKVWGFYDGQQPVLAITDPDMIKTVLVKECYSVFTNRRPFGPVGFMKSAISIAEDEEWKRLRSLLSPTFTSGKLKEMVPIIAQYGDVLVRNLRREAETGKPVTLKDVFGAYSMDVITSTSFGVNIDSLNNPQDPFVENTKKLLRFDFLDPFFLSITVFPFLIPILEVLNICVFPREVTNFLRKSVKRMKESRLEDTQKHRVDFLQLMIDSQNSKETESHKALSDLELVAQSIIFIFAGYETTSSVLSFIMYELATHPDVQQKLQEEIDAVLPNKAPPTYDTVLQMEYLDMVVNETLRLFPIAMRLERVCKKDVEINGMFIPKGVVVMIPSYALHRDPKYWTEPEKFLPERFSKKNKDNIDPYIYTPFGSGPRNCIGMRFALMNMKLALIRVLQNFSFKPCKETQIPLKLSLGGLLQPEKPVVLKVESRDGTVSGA

With `Cc1[nH]c2ccccc2c1SCC(=O)N1CCCc2ccccc21` the EC50 [1] was 6.34 µM (active).

For `O=c1oc2ccccc2n1CSc1nc2ccccc2s1`, the EC50 [1] was 550 µM (active).

For `CCCC(=O)Nc1ccc(Sc2ccc([N+](=O)[O-])cc2)cc1`, the IC50 [2] was 10.7 µM (not active) and the IC50 [3] was 77.8 µM (inactive).

For `CCCn1c(C)nc2c(N(CCN(C)C)Cc3ccccc3)nc(C)nc21`, the AC50 (Cytochrome P450 3A4 [4]) was 12.6 µM (inconclusive).

In the case of `C=CCNC(=O)c1cc([N+](=O)[O-])cc2c(=O)[nH]c(Nc3ccc(Cl)c(Cl)c3)nc12`, the AC50 (Cytochrome P450 3A4 [4]) is reported as 10 µM (inconclusive).

In the case of `COc1cccc(NC(=O)Nc2ccc3c(c2)CCC3)c1`, the IC50 [5] is reported as 4.28 µM (active), the IC50 [6] is reported as > 100 µM (inactive) and the IC50 [7] is reported as > 100 µM (inactive).

For `CC(C)C(c1nnnn1Cc1ccccc1)N(Cc1ccco1)Cc1cccs1` (stereo not drawn), the IC50 [3] was > 80 µM (inactive).

With `CCC1=C(OC(=O)N(CC)CC)N2C(=O)O/C(=N\CCOC)[C@]2(C)[C@H]2C1=CC[C@H]1C(=O)NC(=O)[C@H]12` the AC50 (Cytochrome P450 3A4 [4]) was 10 µM (inconclusive).

With `CCOC(=O)C1=C(Nc2ccc(OC)cc2)S/C(=C\c2ccc(OCC(=O)O)c(OCC)c2)C1=O` the IC50 (Leucine aminopeptidase) was 21.3 µM (active) and the IC50 (Aminopeptidase N) was 36.3 µM (active).

In the case of `Cc1ccc(NC(=O)c2c(-c3c(F)cccc3Cl)noc2C)cc1F`, the AC50 (INS1) is reported as > 260 µM (inactive) and the EC50 [1] is reported as 5.69 µM (active).

With `C=CC(C1=CC(=O)C(OC)=C(OC)C1=O)c1ccccc1` (stereo not drawn) the AC50 (Cytochrome P450 3A4 [4]) was 15.8 µM (inconclusive).

In the case of `CC(=O)c1cccc(S(=O)(=O)Nc2cc(C(F)(F)F)ccc2N2CCOCC2)c1`, the IC50 [3] is reported as > 80 µM (inactive).

With `Cc1ccc(N(C(=O)Cc2c[nH]c3ccccc23)C(C(=O)NC2CCCCC2)c2ccco2)cc1` (stereo not drawn) the EC50 [1] was 10.2 µM (active).

In the case of `O=C(O)C/C(=C\c1ccc(Cl)cc1)c1nc2ccccc2o1`, the IC50 (Leucine aminopeptidase) is reported as 105 µM (active) and the IC50 (Aminopeptidase N) is reported as 33.9 µM (active).

In the case of `CCC(=O)N1c2ccccc2C(N(C(C)=O)c2ccccc2)CC1C` (stereo not drawn), the EC50 (cells [8]) is reported as > 350 µM (not active), the IC50 [3] is reported as > 80 µM (inactive) and the EC50 (cells [9]) is reported as > 350 µM (not active).

In the case of `CCN1C(=O)c2cccc3c(S(=O)(=O)Nc4ccccc4)ccc1c23`, the IC50 [3] is reported as > 80 µM (inactive).

With `Clc1ccc2c(c1)C(N1CCNCC1)=Nc1ccccc1O2` [AMOXAPINE] the AC50 (Cytochrome P450 3A4 [4]) was 10 µM (inconclusive) and the AC50 (Cytochrome P450 3A4 [10]) was 15.8 µM (inconclusive).

In the case of `C/C=C/C1Oc2ccc(OC)cc2N2C(=O)C(C)C(OCOC)C12` (stereo not drawn), the AC50 (Cytochrome P450 3A4 [4]) is reported as 3.98 µM (inconclusive).

With `Cn1cccc1Cc1nnc(SCC(=O)Nc2ccccc2)n1-c1ccc(F)cc1` the EC50 [1] was 2.44 µM (active).
